Results: PMC7405012, “Detection of Chaetomium globosum, Ch. cochliodes and Ch. rectangulare during the Diversity Tracking of Mycotoxin-Producing Chaetomium-like Isolates Obtained in Buildings in Finland” (Toxins, 2020)
In brackets after ≈: the same amount, converted by molar mass. Like-named read-outs stand apart in the source and are kept apart here.

Experiments:
boar spermatozoa [1] = assay: cells; format: cell-based; settings: for EC50: Spermatozoa, read-out: EC50 BSMIM Boar Sperm 20 min
boar spermatozoa [2] = assay: cells; format: cell-based; settings: for EC50: Spermatozoa, read-out: EC50 SMIDM Boar Sperm 2 h
[3] = system: porcine kidney cells (PK-15); assay: cells; format: cell-based; settings: for EC50: Sus scrofa, 48 h, read-out: EC50 ICP PK-15 2 days
resting boar spermatozoa [4] = assay: Plasma membrane integrity of resting spermatozoa (SMIDR), calcein-AM + PI; format: cell-based; settings: resting boar sperm, 24 °C; for CC50: Spermatozoa, 48 h, 2 days, read-out: EC50 Lethal Toxicity SMIDR 2 days
Procedure: The long-term effects of exposure to chaetoglobosin A and to the chaetoglobosin-containing extracts of the Ch. globosum MTAV35 and MTAV37 strains were measured in resting sperm cells exposed at 24 °C for two days. Three criteria were assessed: (1) the motility inhibition of resting boar spermatozoa (BSMIR); (2) the change in mitochondrial membrane potential (ΔΨ) observed using the potentiometric dye JC-1; and (3) the plasma membrane integrity (SMIDR) observed using the viability stain calcein-AM + propidium iodide (PI). […] By contrast, the EC50 concentrations in the SMIDR assays, which measured the lethal damages in plasma membrane after incubation for two days, were >50 times higher (Figure 5 and Table 3).
(§1) The boar sperm cells exposed for 2 days to commercial chaetoglobosin A and the crude extract of MTAV35 and MTAV37 were double-stained with the viability stains PI + calcein–AM, the SMIDR assay, as described earlier. The staining protocol was as follows: 200 μL of extended boar semen containing 27 × 10^6 sperm cells mL^−1 was mixed with 200 μL PBS containing 3 μg mL^−1 calcein-AM and 10 μg mL^−1 PI. The ΔΨm assay monitored the mitochondrial membrane potential changes (ΔΨm) by staining with the lipophilic potentiometric dye JC-1 as described by Mikkola et al. (2015). For the staining with JC-1 (35 µg mL^−1), 200 µL of the sperm cells were shaken and incubated at 37 °C for 5 min. After staining, the cells exposed in the SMIDR and the ΔΨm assays were inspected with fluorescence microscope using 400× magnification (Nikon Eclipse E600, Nikon Corporation, Tokyo Japan) with filters BP 450–490 nm/LP 520. The calcein–AM-stained cells with intact plasma membranes produced green fluorescence, whereas the PI-dyed cells with damaged plasma membranes produced red fluorescence. In JC-1 stained sperm cells, mitochondria with high membrane potential emitted yellow fluorescence, whereas depolarized mitochondria fluoresced green.
(§2) The EC50 concentration in these microscopic assays was defined as the lowest concentration where the ratio of cells similar to those in the solvent control was less than 50%. This EC50 fitted between EC90 and EC10 observed in the microscope calculating ca. 100–120 sperm cells from three microscopic fields. The maximal difference between four parallel tests in each of the two methods was one dilution step. The assays were calibrated with triclosan.

resting boar spermatozoa [5] = assay: Motility inhibition of resting boar spermatozoa (BSMIR); format: cell-based; settings: resting boar sperm; for EC50: Spermatozoa
Procedure: (§3) Three criteria were assessed: (1) the motility inhibition of resting boar spermatozoa (BSMIR); (2) the change in mitochondrial membrane potential (ΔΨ) observed using the potentiometric dye JC-1; and (3) the plasma membrane integrity (SMIDR) observed using the viability stain calcein-AM + propidium iodide (PI). […] By contrast, the EC50 concentrations in the SMIDR assays, which measured the lethal damages in plasma membrane after incubation for two days, were >50 times higher (Figure 5 and Table 3).
The procedure for the BSMIR assay measuring sublethal toxicity as motility inhibition, i.e., inability to respond to induction of motility in resting sperm cells is described below: The ethanol solutions (0.5–10 μL) were dispensed in 2000 μL of extended boar semen (Figen Ltd., Tuomikylä, Finland, density of 27 × 10^6 sperms mL^−1) incubated at 24 °C, and motility of the sperms was inspected in the phase-contrast microscope (400× magnification) with a heated stage, (Olympus CKX41, Tokyo, Japan; magnification 400×) and an image recording software (Cellsense® standard version 11.0.06, Olympus Soft Imaging Solutions GmbH, Münster, Germany, 2012) as described previously. […] The EC50 was calculated from the equation of the straight line between EC50-40 and EC80-90: Y = −ΔY/ΔX × X + C where Y is the motility closest to 50% of the motility of the solvent control, X is the EC50 concentration and C is a constant between 100% and 60%. All tests were run in triplicates and differences between replicate tests were within one dilution step (2-fold). The sperm assays were calibrated with triclosan and valinomycin.

resting boar spermatozoa [6] = assay: Mitochondrial membrane potential (ΔΨm) assay with JC-1 in resting spermatozoa; format: cell-based; settings: resting boar sperm; for EC50: Spermatozoa
Procedure: as §3, §1, §2

resting PK-15 cells = assay: Mitochondrial damage test: accelerated glucose consumption and extracellular acidosis; format: cell-based, porcine; settings: for sublethal concentration that promoted the acceleration of glycolysis: PK-15 cells, positive controls for mitochondrial toxicity; for EC50: Sus scrofa
Procedure: The mitochondria were depolarized in sperm cells exposed to sublethal concentrations of chaetoglobosin A (Figure 5) and to the chaetoglobosin-containing extracts (Table 3). This observation aroused the suspicion regarding mitochondrial toxicity. The mitochondrial toxicity of the extracts containing chaetoglobosin was assessed by measuring the accelerated glucose consumption in resting PK-15 cells. […] By contrast, the positive controls for mitochondrial toxicity—enniatin B, moniliformin and valinomycin at sublethal concentrations of 1.5, 4 and 5 ng mL^−1, respectively—promoted the acceleration of glycolysis.
The test for mitochondrial damage as indicated by accelerated glucose consumption and extracellular acidosis was described earlier. The PK-15 cells were grown in 8-well flat-bottom chamber glass slides, seeded to a density of 4 × 10^4 cells mL^−1, in the respective medium for 48 h. The twofold serially diluted test substances or the vehicle only was dispensed into the wells. The glucose content of the wells was measured by using a glucose meter (Precision Xceed; Abbott Diabetes Care Ltd., Berkshire, United Kingdom). In wells that received nothing or the vehicle only, the glucose concentration decreased from an initial concentration (0 h) of 12 to 6 mM (24 h), but the pH remained as pH of 7.2. A glucose concentration after 24 h of ≤3 mM indicated excessive glucose consumption. Prior to the measurement of the pH, the chamber slides were transferred into ambient air for 1 h to allow CO2 to evaporate. A pH drop of 0.5 units in the toxin-exposed well compared to the vehicle only was considered proof of acidosis. Mitochondrial depolarization (ΔΨm assay) was read by a fluorescence microscope after 26 h of exposure to the toxicants from the monolayers double stained with the membrane potential-responsive fluorogenic dye JC-1 and with propidium iodide to assess the relaxing of the plasma membrane permeability barrier, similar to what was reported previously for sperm cells (27).

[7] = system: murine neuroblastoma cells (MNA); assay: Inhibition of cell proliferation (ICP) assay, MNA; format: cell-based; settings: MNA, 2 days, 37 °C
Procedure: The plate-grown biomass of the fungal pure cultures (100–300 mg) was extracted with ethanol as described earlier. The toxicity assays, namely BSMI assay after exposure for 30 min (rapid inhibition) and for one day (slow inhibition), SMID assay and ICP assay, were all described previously. The toxicity assays involving the ethanol extracts obtained from pure fungal cultures were performed using porcine cells (sperms and somatic cell lines) as indicators according to methods described before. The calculation of EC50—the half maximal effective concentration for the ethanol-dry substances and pure mycotoxins in the BSMI, SMID and ICP assays—were described previously.
The continuous cell line PK-15 (porcine kidney cells) and a malignant cell line (MNA cell line) provided by EVIRA (Helsinki, Finland) were used in the ICP assay. 5,5′,6,6′-tetrachloro-1,1′,3,3′-tetraethyl-benzimidazolylcarbocyanine iodide (JC-1, 3520-43-2), PI (25535-16-4) and calcein-AM (148504-34-1) were obtained from Invitrogen (Carlsbad, CA, USA). Alamethicin A4665 (T. arundinaceum) (CAS 27061-78-5), a mixture of alamethicin F50 peptaibols (MW 1962, 1976, 1976 and 1990), chaetoglobosin A (CAS 50335-03-0), sterigmatocystin (CAS 10048-13-5) and ochratoxin A (CAS 303-47-9) were obtained from Sigma-Aldrich (St. Louis, MO, USA). Malt extract and tryptic soy agar were obtained from Scharlab (Barcelona, Spain). The other chemicals were of analytical grade and were purchased from local suppliers. The biocides and the wetting agent Genapol-080 were purchased from Sigma-Aldrich Finland. The fungicide Boracol 10Rh was obtained from a local supplier. The selected biocides were Borax (600 µg mL^−1; sodium tetraborate, CAS: 1330-43-4), Boracol 10Rh containing disodium octaborate tetrahydrate (CAS: 12280-03-04) and didecyldimethylammonium chloride [CAS: 7173-51-5]), PHMB (CAS: 27083-27-8), phenoxyethanol (CAS: 122-99-6), chloramine, triclosan (5-Chloro-2-(2,4-dichlorophenoxy)phenol, CAS: 3380-34-5) and the wetting agent Genapol X-080 (CAS: 9043-30-5). Genapol X-080 and the biocides were purchased from Sigma-Aldrich, except for Boracol 10Rh, which was purchased from a local supplier.

[8] = 20 min, motile boar sperm, 20 min, 37 °C
[9] = 48 h, 24 °C, 2 days, read-out: EC50 Sublethal Toxicity BSMIR 2 days
[10] = 48 h, JC-1, 2 days, read-out: EC50 Sublethal Toxicity Depletion of ΔΨm 2 days
[11] = 24 h, PK-15, 1 day, read-out: EC50 Sublethal Toxicity Acceleration of glycolysis 1 day
[12] = 48 h, PK-15, 2 days, read-out: EC50 Sublethal Toxicity Acidosis 2 days

Compound | EC50 (boar spermatozoa [1]; [8]) | EC50 (boar spermatozoa [2]; motile boar sperm, 2 h, 37 °C) | EC50 ([3]; PK-15, 2 days, 37 °C) | CC50 (resting boar spermatozoa [4]) | EC50 (resting boar spermatozoa [5]; [9]) | EC50 (resting boar spermatozoa [6]; [10]) | sublethal concentration that promoted the acceleration of glycolysis (resting PK-15 cells) | EC50 (resting PK-15 cells; [11]) | EC50 (resting PK-15 cells; [12]) | lethal concentration in resting PK-15 cells (number in parenthesis) (resting PK-15 cells) | EC50 Sublethal Toxicity BSMIR 2 days (resting boar spermatozoa [5]; 24 °C, 2 days) | EC50 Sublethal Toxicity Depletion of ΔΨm 2 days (resting boar spermatozoa [6]; JC-1, 2 days) | EC50 Sublethal Toxicity Acceleration of glycolysis 1 day (resting PK-15 cells; PK-15, 1 day) | EC50 Sublethal Toxicity Acidosis 2 days (resting PK-15 cells; PK-15, 2 days) | further results
CC(C)[C@@H]1NC(=O)[C@H](C)OC(=O)[C@@H](C(C)C)NC(=O)[C@@H](C(C)C)OC(=O)[C@H](C(C)C)NC(=O)[C@H](C)OC(=O)[C@@H](C(C)C)NC(=O)[C@@H](C(C)C)OC(=O)[C@H](C(C)C)NC(=O)[C@H](C)OC(=O)[C@@H](C(C)C)NC(=O)[C@@H](C(C)C)OC1=O [Valinomycin] | 0.0001 µg/mL (≈ 9e-05 µM) | 70 µg/mL (≈ 63 µM) | 14 µg/mL (≈ 12.6 µM) | 5 µg/mL | 0.05 ng/mL (≈ 4.5e-05 µM) | 0.05 ng/mL (≈ 4.5e-05 µM) | 5 ng/mL | 0.005 µg/mL (≈ 0.0045 µM) | 0.005 µg/mL (≈ 0.0045 µM) | 5 µg/mL | – | – | – | – | EC50 (resting boar spermatozoa [5]; 96 h, 4 days, read-out: EC50 Sublethal Toxicity BSMIR 4 days): 0.05 ng/mL (≈ 4.5e-05 µM); EC50 (resting boar spermatozoa [6]; 96 h, JC-1, 4 days, read-out: EC50 Sublethal Toxicity Depletion of ΔΨm 4 days): 0.05 ng/mL (≈ 4.5e-05 µM)
COc1cc2c(c3oc4cccc(O)c4c(=O)c13)[C@@H]1C=CO[C@@H]1O2 [Sterigmatocystin, sterigmatocystin] | – | – | – | – | – | – | – | – | – | – | – | – | – | – | EC50 BSMIM Boar Sperm 20 min (boar spermatozoa [1]): >20 µg dry wt mL^−1; EC50 SMIDM Boar Sperm 2 h (boar spermatozoa [2]): >20 µg dry wt mL^−1; EC50 ICP PK-15 2 days [3]: 0.5 µg dry wt mL^−1
CC1=C2C(=CO[C@H](C)[C@H]2C)C(O)=C(C(=O)O)C1=O [Citrinin, reference compound] | > 100 µg/mL | 50 µg/mL (≈ 200 µM) | 10 µg/mL (≈ 40 µM) | – | – | – | – | – | – | – | – | – | – | – | EC50 ([7]; Mus musculus, Neuroblastoma cell, 48 h, read-out: EC50 ICP MNA 2 days): 10 µg/mL (≈ 40 µM)
CC(C)[C@H]1C(=O)O[C@H](C(C)C)C(=O)N(C)[C@@H](C(C)C)C(=O)O[C@H](C(C)C)C(=O)N(C)[C@@H](C(C)C)C(=O)O[C@H](C(C)C)C(=O)N1C [Enniatin B] | – | – | – | > 50 µg/mL | 5000 ng/mL (≈ 7.81 µM) | 5000 ng/mL (≈ 7.81 µM) | – | 5 µg/mL (≈ 7.81 µM) | 5 µg/mL (≈ 7.81 µM) | 50 µg/mL | – | – | – | – | –
O=c1cc(O)c1=O [Moniliformin] | – | – | – | – | – | – | 4 ng/mL | – | – | 40 µg/mL | 2 µg/mL (≈ 20.4 µM) | None | 4 µg/mL | 4 µg/mL (≈ 40.8 µM) | –
Alamethicin | – | – | – | – | – | – | – | – | – | – | 0.2 µg/mL | 0.2 µg/mL | None | None | EC50 BSMIM Boar Sperm 20 min (boar spermatozoa [1]; motile boar sperm, 20 min, 37 °C): 5 µg dry wt mL^−1; EC50 SMIDM Boar Sperm 2 h (boar spermatozoa [2]; motile boar sperm, 2 h, 37 °C): 1 µg dry wt mL^−1; EC50 ICP PK-15 2 days ([3]; PK-15, 2 days, 37 °C): 8 µg dry wt mL^−1; EC50 ICP MNA 2 days [7]: 8 µg dry wt mL^−1; EC50 Lethal Toxicity SMIDR 2 days (resting boar spermatozoa [4]): 0.2 µg/mL
